Reference: patent US20120245155A1, “FUSED HETEROCYCLIC COMPOUND HAVING AMINO GROUP” (Shionogi & Co., Ltd., priority 2009, published 2012)

Experiments:
hERG (IKr) = biological target: T1, hERG (IKr) (Homo sapiens, UniProt Q12809); experiment: hERG test; assay type: cell-based; details: pH 7.4, HEK293 cells expressing hERG channel, whole cell patch clamp, concentration not given, read-out: % inhibition relative to the tail peak current (IKr)
T1 construct: expressed in transfected cells; host or cells: HEK293 cells
Description: For the purpose of assessing risk of an electrocardiogram QT interval prolongation, effects on delayed rectifier K+ current (IKr), which plays an important role in the ventricular repolarization process of the compound of the present invention, is studied using HEK293 cells expressing human ether-a-go-go related gene (hERG) channel.
After a cell was retained at a membrane potential of −80 mV by whole cell patch clamp method using an automated patch clamp system (PatchXpress 7000A, Axon Instruments Inc.), IKr induced by depolarization pulse stimulation at +40 mV for 2 seconds and, further, repolarization pulse stimulation at −50 mV for 2 seconds was recorded. […] From the recording IKr, an absolute value of the tail peak current was measured based on the current value at the resting membrane potential using analysis software (DataXpress ver. 1, Molecular Devices Corporation). Further, the % inhibition relative to the tail peak current before application of the test compound was calculated, and compared with the vehicle-applied group (0.1% dimethyl sulfoxide solution) to assess influence of the test compound on IKr.

[1] = tested on: Neuroblastoma SH—SY5Y cells (SH/APPwt) with human wild-type β-APP excessively expressed; experiment: Measurement of β-amyloid (Aβ) production inhibitory effect in cell; assay type: cell-based; details: 24 hours incubation, Amyloid β 1-40 by HTRF, read-out: amount needed to inhibit Aβ production by 50% (IC50)
Protocol: Neuroblastoma SH—SY5Y cells (SH/APPwt) with human wild-type p-APP excessively expressed therein were prepared at 8×10^5 cells/mL, and 150 μl portions thereof were inoculated into each well of a 96-well culture plate (Falcon). The cells were cultured for 2 hours at 37° C. in a 5% gaseous carbon dioxide incubator. Then, a solution which had been preliminarily prepared by adding and suspending the test compound (DMSO (dimethyl sulfoxide) solution) so as to be 2 μl/50 μl medium was added to the cell sap. Namely, the final DMSO concentration was 1%, and the amount of the cell culture was 200 μl. After the incubation was performed for 24 hours from the addition of the test compound, 100 μl of the culture supernatant was collected from each fraction. The amount of the Aβ in each fraction was measured.
The Aβ amount was measured as follows. 10 μl of a homogeneous time resolved fluorescence (HTRF) measurement reagent (Amyloid β 1-40 peptide; IBA Molecular Holding, S. A.) and 10 μl of the culture supernatant were put into a 384-well half area microplate (black microplate, Costar) and mixed with each other, and then left standing overnight at 4° C. while the light was shielded. Then, the fluorescence intensity (excitation wavelength: 337 nm, measurement wavelength: 620 nm and 665 nm) was measured with a Wallac 1420 multilabel counter (Perkin Elmer life sciences). The Aβ amount was determined from the count rate at each measurement wavelength (10000× Count 665/Count 620), and the amount needed to inhibit Aβ production by 50% (IC50) was calculated from at least six different dosages.

T1 sequence (Q12809 whole entry): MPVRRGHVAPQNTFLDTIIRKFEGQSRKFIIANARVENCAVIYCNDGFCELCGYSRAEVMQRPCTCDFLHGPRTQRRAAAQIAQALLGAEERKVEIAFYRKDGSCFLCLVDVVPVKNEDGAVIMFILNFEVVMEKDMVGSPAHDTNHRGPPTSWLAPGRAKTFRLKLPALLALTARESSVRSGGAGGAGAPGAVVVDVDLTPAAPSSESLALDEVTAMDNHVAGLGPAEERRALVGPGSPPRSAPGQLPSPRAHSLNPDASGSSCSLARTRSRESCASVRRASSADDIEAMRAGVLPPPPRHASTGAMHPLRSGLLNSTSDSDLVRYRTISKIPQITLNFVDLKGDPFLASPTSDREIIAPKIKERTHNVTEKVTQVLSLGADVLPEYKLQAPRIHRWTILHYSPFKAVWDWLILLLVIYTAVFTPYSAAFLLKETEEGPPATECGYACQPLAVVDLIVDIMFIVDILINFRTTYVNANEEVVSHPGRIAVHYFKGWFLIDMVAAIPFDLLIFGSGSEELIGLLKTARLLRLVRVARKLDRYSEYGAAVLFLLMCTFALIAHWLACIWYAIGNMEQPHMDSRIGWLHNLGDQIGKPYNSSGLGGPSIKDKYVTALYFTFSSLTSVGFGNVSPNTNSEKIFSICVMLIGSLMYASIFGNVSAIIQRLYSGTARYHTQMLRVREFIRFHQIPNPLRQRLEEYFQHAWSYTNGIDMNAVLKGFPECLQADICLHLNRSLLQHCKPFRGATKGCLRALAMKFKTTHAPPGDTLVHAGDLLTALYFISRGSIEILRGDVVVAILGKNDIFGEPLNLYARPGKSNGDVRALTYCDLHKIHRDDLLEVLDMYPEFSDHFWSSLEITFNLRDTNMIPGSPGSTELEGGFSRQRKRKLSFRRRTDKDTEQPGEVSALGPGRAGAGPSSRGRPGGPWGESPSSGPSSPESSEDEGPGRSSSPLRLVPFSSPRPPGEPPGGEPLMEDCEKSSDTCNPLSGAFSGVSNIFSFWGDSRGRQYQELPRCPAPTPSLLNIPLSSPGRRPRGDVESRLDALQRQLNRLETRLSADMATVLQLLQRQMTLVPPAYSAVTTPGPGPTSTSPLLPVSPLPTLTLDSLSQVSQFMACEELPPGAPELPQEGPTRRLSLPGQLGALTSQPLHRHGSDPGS

## NC1=NC2(c3cc(-c4cncnc4)ccc3F)CCCC2CO1 (racemic) [Compound I-39]
hERG (IKr)
  inhibition at 10 min: 19.3%
[1]
  IC50: ≤ 1000 nM
